Results from ChEMBL document CHEMBL1146065, “Structure-based optimization of azole antifungal agents by CoMFA, CoMSIA, and molecular docking” (2006).
In brackets after ≈: the same amount, converted by molar mass.

What follows are compounds tested on Candida albicans (assay: Antifungal activity against Candida albicans).
Type: functional

Structure (SMILES)	MIC80
N#Cc1ccc(N2CCN(CC(O)(Cn3cncn3)c3ccc(F)cc3F)CC2)cc1 (centres undefined)	0.0324 µM (≈ 0.0138 µg/mL)
CC(C)(C)c1ccc(N2CCN(CC(O)(Cn3cncn3)c3ccc(F)cc3F)CC2)cc1 (centres undefined)	0.137 µM (≈ 0.0625 µg/mL)
OC(CN1CCN(c2cccc(C(F)(F)F)c2)CC1)(Cn1cncn1)c1ccc(F)cc1F (centres undefined)	0.032 µM (≈ 0.015 µg/mL)
O=C(c1ccc(F)cc1)N1CCN(CC(O)(Cn2cncn2)c2ccc(F)cc2F)CC1 (centres undefined)	2.23 µM (≈ 0.994 µg/mL)
OC(CN1CCN(Cc2cc(F)ccc2Br)CC1)(Cn1cncn1)c1ccc(F)cc1F (centres undefined)	0.122 µM (≈ 0.0625 µg/mL)
CC(=O)c1ccc(N2CCN(CC(O)(Cn3cncn3)c3ccc(F)cc3F)CC2)cc1 (centres undefined)	0.0339 µM (≈ 0.015 µg/mL)
O=Cc1ccc(N2CCN(CC(O)(Cn3cncn3)c3ccc(F)cc3F)CC2)cc1 (centres undefined)	0.035 µM (≈ 0.015 µg/mL)
CC(C)(C)c1ccc(C(=O)N2CCN(CC(O)(Cn3cncn3)c3ccc(F)cc3F)CC2)cc1 (centres undefined)	1.03 µM (≈ 0.5 µg/mL)
O=[N+]([O-])c1ccccc1CN1CCN(CC(O)(Cn2cncn2)c2ccc(F)cc2F)CC1 (centres undefined)	34.9 µM (≈ 16 µg/mL)
O=C(c1ccccc1Cl)N1CCN(CC(O)(Cn2cncn2)c2ccc(F)cc2F)CC1 (centres undefined)	2.16 µM (≈ 1 µg/mL)
OC(CN1CCN(c2cc(C(F)(F)F)cc(Cl)n2)CC1)(Cn1cncn1)c1ccc(F)cc1F (centres undefined)	0.124 µM (≈ 0.0625 µg/mL)
O=C(c1ccc([N+](=O)[O-])cc1)N1CCN(CC(O)(Cn2cncn2)c2ccc(F)cc2F)CC1 (centres undefined)	1.06 µM (≈ 0.5 µg/mL)
COc1ccccc1C(=O)N1CCN(CC(O)(Cn2cncn2)c2ccc(F)cc2F)CC1 (centres undefined)	17.5 µM (≈ 8 µg/mL)
Cc1ccc(C(=O)N2CCN(CC(O)(Cn3cncn3)c3ccc(F)cc3F)CC2)cc1 (centres undefined)	18.1 µM (≈ 8 µg/mL)
Cc1ccccc1C(=O)N1CCN(CC(O)(Cn2cncn2)c2ccc(F)cc2F)CC1 (centres undefined)	36.2 µM (≈ 16 µg/mL)
OC(CN1CCN(c2ccccn2)CC1)(Cn1cncn1)c1ccc(F)cc1F (centres undefined)	0.156 µM (≈ 0.0625 µg/mL)
O=C(c1cccc([N+](=O)[O-])c1)N1CCN(CC(O)(Cn2cncn2)c2ccc(F)cc2F)CC1 (centres undefined)	16.9 µM (≈ 8 µg/mL)
O=[N+]([O-])c1ccc(Cl)c(CN2CCN(CC(O)(Cn3cncn3)c3ccc(F)cc3F)CC2)c1 (centres undefined)	0.254 µM (≈ 0.125 µg/mL)
O=C(c1ccccc1)N1CCN(CC(O)(Cn2cncn2)c2ccc(F)cc2F)CC1 (centres undefined)	2.34 µM (≈ 1 µg/mL)
O=C(c1ccc(Cl)cc1)N1CCN(CC(O)(Cn2cncn2)c2ccc(F)cc2F)CC1 (centres undefined)	0.541 µM (≈ 0.25 µg/mL)
COc1ccc(C(=O)N2CCN(CC(O)(Cn3cncn3)c3ccc(F)cc3F)CC2)cc1 (centres undefined)	0.273 µM (≈ 0.125 µg/mL)
Nc1ccc(C(=O)N2CCN(CC(O)(Cn3cncn3)c3ccc(F)cc3F)CC2)cc1 (centres undefined)	36.2 µM (≈ 16 µg/mL)
OC(CN1CCN(c2ccncc2)CC1)(Cn1cncn1)c1ccc(F)cc1F (centres undefined)	2.5 µM (≈ 1 µg/mL)

Further lines, results first:

MIC80	Structure (SMILES)
0.034 µM (≈ 0.016 µg/mL)	CC(C)(C)c1ccc(CN2CCN(CC(O)(Cn3cncn3)c3ccc(F)cc3F)CC2)cc1 (centres undefined)
4.64 µM (≈ 2 µg/mL)	OC(CN1CCN(Cc2ccccc2F)CC1)(Cn1cncn1)c1ccc(F)cc1F (centres undefined)
0.14 µM (≈ 0.0625 µg/mL)	OC(CN1CCN(Cc2cccc(Cl)c2)CC1)(Cn1cncn1)c1ccc(F)cc1F (centres undefined)
0.254 µM (≈ 0.125 µg/mL)	OC(CN1CCN(Cc2ccc(Br)cc2)CC1)(Cn1cncn1)c1ccc(F)cc1F (centres undefined)
0.232 µM (≈ 0.125 µg/mL)	OC(CN1CCN(Cc2cccc(I)c2)CC1)(Cn1cncn1)c1ccc(F)cc1F (centres undefined)
0.0357 µM (≈ 0.016 µg/mL)	OC(CN1CCN(Cc2ccc(Cl)cc2)CC1)(Cn1cncn1)c1ccc(F)cc1F (centres undefined)
0.122 µM (≈ 0.0625 µg/mL)	OC(CN1CCN(Cc2ccc(F)cc2Br)CC1)(Cn1cncn1)c1ccc(F)cc1F (centres undefined)
0.285 µM (≈ 0.125 µg/mL)	N#Cc1ccc(CN2CCN(CC(O)(Cn3cncn3)c3ccc(F)cc3F)CC2)cc1 (centres undefined)
2.27 µM (≈ 1 µg/mL)	Cc1cccc(C(=O)N2CCN(CC(O)(Cn3cncn3)c3ccc(F)cc3F)CC2)c1 (centres undefined)
0.579 µM (≈ 0.25 µg/mL)	OC(CN1CCN(Cc2ccc(F)cc2)CC1)(Cn1cncn1)c1ccc(F)cc1F (centres undefined)
0.0331 µM (≈ 0.016 µg/mL)	OC(CN1CCN(Cc2ccc(Cl)cc2Cl)CC1)(Cn1cncn1)c1ccc(F)cc1F (centres undefined)
0.116 µM (≈ 0.0625 µg/mL)	OC(CN1CCN(Cc2ccc(I)cc2)CC1)(Cn1cncn1)c1ccc(F)cc1F (centres undefined)
0.558 µM (≈ 0.25 µg/mL)	OC(CN1CCN(Cc2ccccc2Cl)CC1)(Cn1cncn1)c1ccc(F)cc1F (centres undefined)
0.292 µM (≈ 0.125 µg/mL)	Cc1cccc(CN2CCN(CC(O)(Cn3cncn3)c3ccc(F)cc3F)CC2)c1 (centres undefined)
0.566 µM (≈ 0.25 µg/mL)	CCc1ccc(CN2CCN(CC(O)(Cn3cncn3)c3ccc(F)cc3F)CC2)cc1 (centres undefined)
2.34 µM (≈ 1 µg/mL)	Cc1ccc(CN2CCN(CC(O)(Cn3cncn3)c3ccc(F)cc3F)CC2)cc1 (centres undefined)
